According to patent US8252810B2, “Bicycloamine derivatives” (Eisai R&D Management Co., Ltd., priority 2008, dated 2012):
Counter-ions that a name gives are not always drawn.

Experiments:
human Nav1.8 = target: T1, human Nav1.8 (Homo sapiens, UniProt Q9Y5Y9); assay: Pharmacological effects on TTX-resistant Na channels in cells expressing human Nav1.8 gene (membrane potential dye, deltamethrin stimulation); assay type: cell-based
T1 construct: expressed in transfected cells
Experimental: Pharmacological Effects on TTX-Resistant Na Channels in Cells Expressing Human Nav1.8 Gene
A cell line expressing human Nav1.8 gene was used to evaluate the pharmacological effects of compounds of the invention.
. A membrane potential-sensitive dye containing TTX (final concentration: 0.25 μM) was added to cells expressing human Nav1.8, prior to incubation at 37° C. for 30-60 minutes. • 2. The test compound was added to the cells, and the mixture was stationed for 15-30 minutes at room temperature while shielded from light. • 3. Deltamethrin (final concentration: 50 μM), a Nav1.8 channel stimulant, was added, and the change in fluorescence intensity due to increased membrane potential was measured. Pharmacological Evaluation
The Nav1.8 channel inhibition of the test compound was determined by the following equation. […] Test Results

ectopic firing = details: as described in Patent document 1, Example 129; cited from earlier work
[1] = tested on: sodium channels in cultured rat hippocampus; details: Patent document 1, Example 129; cited from earlier work

T1 sequence (Q9Y5Y9 whole entry): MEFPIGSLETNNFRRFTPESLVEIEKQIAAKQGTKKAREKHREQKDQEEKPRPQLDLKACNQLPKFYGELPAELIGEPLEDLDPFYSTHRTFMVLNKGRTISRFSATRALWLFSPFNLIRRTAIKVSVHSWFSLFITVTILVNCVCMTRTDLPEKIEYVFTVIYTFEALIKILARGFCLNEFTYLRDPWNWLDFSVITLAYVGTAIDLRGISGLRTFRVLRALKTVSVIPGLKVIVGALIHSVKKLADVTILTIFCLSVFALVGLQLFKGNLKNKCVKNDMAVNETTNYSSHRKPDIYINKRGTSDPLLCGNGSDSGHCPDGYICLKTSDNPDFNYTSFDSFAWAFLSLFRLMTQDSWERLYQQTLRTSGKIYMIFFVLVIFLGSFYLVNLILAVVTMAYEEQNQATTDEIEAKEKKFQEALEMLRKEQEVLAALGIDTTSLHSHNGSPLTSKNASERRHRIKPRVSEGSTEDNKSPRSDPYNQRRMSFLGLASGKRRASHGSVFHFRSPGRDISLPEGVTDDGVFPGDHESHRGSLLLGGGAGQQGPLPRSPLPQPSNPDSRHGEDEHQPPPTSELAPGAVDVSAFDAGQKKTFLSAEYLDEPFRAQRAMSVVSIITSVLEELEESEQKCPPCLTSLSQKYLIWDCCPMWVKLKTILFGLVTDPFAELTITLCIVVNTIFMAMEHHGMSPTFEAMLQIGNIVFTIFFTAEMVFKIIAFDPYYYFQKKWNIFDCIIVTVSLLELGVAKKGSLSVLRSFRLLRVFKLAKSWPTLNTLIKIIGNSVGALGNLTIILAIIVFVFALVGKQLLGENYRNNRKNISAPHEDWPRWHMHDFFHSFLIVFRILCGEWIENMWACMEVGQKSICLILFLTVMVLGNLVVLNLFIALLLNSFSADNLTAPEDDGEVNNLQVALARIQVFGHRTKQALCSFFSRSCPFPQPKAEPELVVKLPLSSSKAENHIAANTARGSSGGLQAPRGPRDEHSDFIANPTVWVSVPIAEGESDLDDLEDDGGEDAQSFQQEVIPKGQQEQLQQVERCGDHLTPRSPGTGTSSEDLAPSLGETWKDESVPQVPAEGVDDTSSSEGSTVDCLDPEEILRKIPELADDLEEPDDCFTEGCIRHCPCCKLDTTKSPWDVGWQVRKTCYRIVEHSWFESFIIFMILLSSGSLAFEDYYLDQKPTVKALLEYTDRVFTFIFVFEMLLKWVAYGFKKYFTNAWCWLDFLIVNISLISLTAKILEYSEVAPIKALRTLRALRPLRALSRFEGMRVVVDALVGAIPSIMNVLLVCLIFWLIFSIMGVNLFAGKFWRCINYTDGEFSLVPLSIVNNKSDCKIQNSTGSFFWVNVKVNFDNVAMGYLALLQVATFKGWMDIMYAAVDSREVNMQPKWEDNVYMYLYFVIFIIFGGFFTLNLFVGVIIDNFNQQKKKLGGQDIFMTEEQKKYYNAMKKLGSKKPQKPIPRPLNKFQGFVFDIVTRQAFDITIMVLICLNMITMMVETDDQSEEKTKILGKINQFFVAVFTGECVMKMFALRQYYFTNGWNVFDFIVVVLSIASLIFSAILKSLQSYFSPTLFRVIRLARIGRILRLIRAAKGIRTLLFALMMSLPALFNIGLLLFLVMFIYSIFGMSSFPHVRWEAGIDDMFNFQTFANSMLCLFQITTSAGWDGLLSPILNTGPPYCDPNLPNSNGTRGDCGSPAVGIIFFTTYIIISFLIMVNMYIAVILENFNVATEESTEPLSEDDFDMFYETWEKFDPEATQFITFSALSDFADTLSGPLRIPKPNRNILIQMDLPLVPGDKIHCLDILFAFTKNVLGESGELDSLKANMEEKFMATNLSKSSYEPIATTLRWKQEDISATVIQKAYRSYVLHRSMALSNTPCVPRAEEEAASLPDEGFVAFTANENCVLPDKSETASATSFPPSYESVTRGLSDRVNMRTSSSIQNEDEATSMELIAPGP

In the case of `CNCCCN1c2ccccc2CCc2ccccc21` [desipramine], the Nav1.8 channel inhibition (human Nav1.8; 30 μM desipramine, reference for complete inhibition under deltamethrin stimulation) is reported as “completely inhibits”.

In the case of `O=c1[nH]cccc1CN1CC2CCCC(C1)C2/C=C/c1ccccc1F` (stereo not shown), the “inhibitory activity against ectopic firing” value (ectopic firing) is given as “inadequate” and the “inhibitory activity against sodium channels” value [1] is given as “has an inhibitory activity”.

With `CCn1c(C)nc(=O)n(C[C@H](O)CN2[C@@H]3CC[C@H]2C[C@@H](OCc2ccccc2CF)C3)c1=O` [Example 66, (Endo)-1-ethyl-3-{(R)-3-[3-(2-fluoromethylbenzyloxy)-8-azabicyclo[3.2.1]oct-8-yl]-2-hydroxypropyl}-6-methyl-1H-[1,3,5]triazine-2,4-dione oxalate] the IC50 (human Nav1.8) was 5.4 µM.
